The values below are quoted from earlier work in patent US20210353650A1 (priority 2020, published 2021).

Data set [1] concerns Vero E6 cells.
For data set [2] the following is noted: nonhuman primates, daily administration of 10 mg/kg; EMA 2020.
The subject of data set [3] is Vero African green monkey kidney epithelial cells. As to conditions: Vero cells used in the CPE assay; 2012 study.

The structures appear in SMILES notation. Bounds are passed on as bounds.

Turning to `CCC(CC)COC(=O)[C@H](C)N[P@](=O)(OC[C@H]1O[C@@](C#N)(c2ccc3c(N)ncnn23)[C@H](O)[C@@H]1O)Oc1ccccc1` [Remdesivir], the cytotoxic concentration in data set [1] is above 100 mM. Moreover, the “intracellular levels of the triphosphate form” value in data set [2] is recorded as “sustained intracellular levels”. Also, the “cytotoxicity toward host cells” value in data set [3] is given as “without causing cytotoxicity”.
